Test results as given in patent publication US20180161314A1, “Methods for Treating Hyperuricemia and Related Diseases” (Ardea Biosciences, Inc., priority 2010, published 2018).

Tested on: healthy adult subjects
Assay: Drug 1 / febuxostat cross-over interaction study in healthy adult subjects (Examples 10-12)
Assay type: in vivo, human
Details: for % serum uric acid change, Mean: drug 1 200 mg qd, febuxostat 40 mg qd
From the text: Study Objectives • To compare the multiple-dose pharmacokinetics of febuxostat in the absence versus presence of drug 1 co-administration. • To compare the multiple-dose pharmacokinetics of drug 1 in the absence versus presence of febuxostat co-administration. • To measure the effects of drug 1 and febuxostat, both alone and in combination, on serum uric acid concentrations and amounts of urate excreted into urine. • To evaluate the safety and tolerability of multiple-doses of drug 1 and febuxostat, both alone or in combination.
The study is a two or three-panel, placebo-controlled (for drug 1), double-blinded (for drug 1 and matched placebo), randomized, cross-over study with up to 54 healthy adult subjects. Each panel consisting of 18 subjects is sequentially enrolled, starting with Panel 1 (200 mg once daily dose of drug 1 or placebo), followed by Panel 2 (400 mg once daily dose of drug 1 or placebo), and followed by optional Panel 3 (100 mg to 600 mg once daily dose of drug 1 or placebo). The placebo control is included in this study to better assess safety and tolerability and the serum urate lowering effect of drug 1 in combination with febuxostat. Serum urate levels may be influenced by frequent blood draws and meal contents; therefore, the true effect on serum urate levels can be determined by correcting for placebo (subtract serum urate effect in placebo subjects from serum urate effect in active subjects).
Subjects in each panel are randomly assigned to one of two treatment sequences (Sequence A or B) after all Baseline (Day −1) procedures have been completed. Each treatment sequence within a panel consists of 9 subjects randomly assigned to receive drug 1 (6 of 9 subjects) or matching placebo (3 of 9 subjects) in a double-blinded fashion. For each treatment sequence, single-agent drug treatment is administered on Days 1 to 7 (either open-label febuxostat or double-blinded drug 1 or matched placebo by random assignment), followed by combination treatment on Days 8 to 14, and completing with the alternative single-agent drug treatment on Days 15 to 21, as follows (Panel 1 shown in FIG. 2):
Sequence A: Days 1-7: Febuxostat, 40 mg (once daily) • Days 8 to 14: drug 1, 200 mg or placebo in combination with febuxostat (once daily) • Days 15-21: drug 1, 200 mg, or placebo (once daily) Sequence B: Days 1-7: drug 1, 200 mg, or placebo (once daily) • Days 8 to 14: drug 1, 200 mg or placebo in combination with febuxostat (once daily) • Days 15-21: Febuxostat, 40 mg (once daily) […]
Serial blood samples for PK and PD assessments are collected up to 24 hours after dosing on Days 7, 14, and 21. Urine (total catch) for assays of drug 1, creatinine, and uric acid are collected starting on Day −1 (pre-treatment baseline) and after dosing on Days 7, 14, and 21. Final safety assessments are completed when subjects return to the clinic at 7±1 days after discharge from the clinic on Day 22 (Follow-Up visit on Day 29). The total volume of blood collected from each subject is approximately 518 mL.
Screening procedures to determine subject eligibility are performed 28 days before the first dose of study drug (Day 1). A total of up to 54 subjects enrolled in up to 3 panels consisting of 2 sequences each, with 9 subjects per sequence (18 subjects per panel). Subjects withdrawing after dosing are not replaced.
Subjects in Panel 1 receive a 200 mg dose of drug 1 or placebo once daily for 14 days and a 40 mg dose of febuxostat once daily for 14 days. Subjects in Panel 2 receive a 400 mg dose of drug 1 or placebo once daily for 14 days and a 40 mg dose of febuxostat once daily for 14 days. Subjects in Panel 3 receive a 100-600 mg dose of drug 1 or placebo once daily for 14 days and a 40 mg dose of febuxostat once daily for 14 days.
Subjects in Sequence A begin dosing on Day 1 with febuxostat and take their first dose of drug 1 or placebo on Day 8. […]

[1] = Week 1, Drug 1 200 mg alone, febuxostat 40 mg alone
[2] = Week 3, Drug 1 200 mg alone, febuxostat 40 mg alone

`O=C(O)CSc1nnc(Br)n1-c1ccc(C2CC2)c2ccccc12` [Drug 1, Sodium 2-(5-bromo-4-(4-cyclopropylnaphthalen-1-yl)-4H-1,2,4-triazol-3-ylthio)acetate] was tested, and the “serum uric acid change from baseline, daily” value (“serum uric acid change … daily” for short) (Day 1, Drug 1 200 mg, FBX 40 mg) was −7.4%, the “serum uric acid change … daily” value (Day 1, Drug 1 400 mg) was −5.5% and the “% serum uric acid change, Mean” value (Day 1) was −14.8%. For the same compound, the “serum uric acid change … daily” value (Day 2, Drug 1 200 mg, FBX 40 mg) was −22.3%, the “serum uric acid change … daily” value (Day 2, Drug 1 400 mg) was −28.9% and the “% serum uric acid change, Mean” value (Day 2) was −26.3%. For the same compound, the “serum uric acid change … daily” value (Day 3, Drug 1 200 mg, FBX 40 mg) was −32.4%, the “serum uric acid change … daily” value (Day 3, Drug 1 400 mg) was −33.3% and the “% serum uric acid change, Mean” value (Day 3) was −34.7%. The “serum uric acid change … daily” value (Day 4, Drug 1 200 mg, FBX 40 mg) was −37.7%, the “serum uric acid change … daily” value (Day 4, Drug 1 400 mg) was −36.2% and the “% serum uric acid change, Mean” value (Day 4) was −31.6%. For the same compound, the “serum uric acid change … daily” value (Day 5, Drug 1 200 mg, FBX 40 mg) was −36%, the “serum uric acid change … daily” value (Day 5, Drug 1 400 mg) was −37.3% and the “% serum uric acid change, Mean” value (Day 5) was −31.3%. For the same compound, the “serum uric acid change … daily” value (Day 6, Drug 1 200 mg, FBX 40 mg) was −39.1%, the “serum uric acid change … daily” value (Day 6, Drug 1 400 mg) was −45.6% and the “% serum uric acid change, Mean” value (Day 6) was −36.2%. The “serum uric acid change … daily” value (Day 7, Drug 1 200 mg, FBX 40 mg) was −41.2%, the “serum uric acid change … daily” value (Day 7, Drug 1 400 mg) was −48.8% and the “% serum uric acid change, Mean” value (Day 7) was −40.7%. The “serum uric acid change … daily” value (Day 8, Drug 1 200 mg, FBX 40 mg, alone or combined as labelled) was −38.9%, the “serum uric acid change … daily” value (Day 8, Drug 1 400 mg, alone or + FBX 40 mg as labelled) was −42.5% and the “% serum uric acid change, Mean” value (Day 8) was −37.6%. The “serum uric acid change … daily” value (Day 15, Drug 1 200 mg, FBX 40 mg, alone or combined as labelled) was −54.8%, the “serum uric acid change … daily” value (Day 15, Drug 1 400 mg, alone or + FBX 40 mg as labelled) was −68.1% and the “serum uric acid change … daily” value (Day 16, Drug 1 200 mg alone (week 3), FBX 40 mg alone) was −42.5%. For the same compound, the “serum uric acid change … daily” value (Day 16, Drug 1 400 mg alone (week 3)) was −53.4%, the “serum uric acid change … daily” value (Day 17, Drug 1 200 mg alone (week 3), FBX 40 mg alone) was −37.5% and the “serum uric acid change … daily” value (Day 17, Drug 1 400 mg alone (week 3)) was −44.8%. For the same compound, the “serum uric acid change … daily” value (Day 18, Drug 1 200 mg alone (week 3), FBX 40 mg alone) was −32.8%, the “serum uric acid change … daily” value (Day 18, Drug 1 400 mg alone (week 3)) was −40.7% and the “serum uric acid change … daily” value (Day 19, Drug 1 200 mg alone (week 3), FBX 40 mg alone) was −25.9%. For the same compound, the “serum uric acid change … daily” value (Day 19, Drug 1 400 mg alone (week 3)) was −33.8%, the “serum uric acid change … daily” value (Day 20, Drug 1 200 mg alone (week 3), FBX 40 mg alone) was −33% and the “serum uric acid change … daily” value (Day 20, Drug 1 400 mg alone (week 3)) was −40%. For the same compound, the “serum uric acid change … daily” value (Day 21, Drug 1 200 mg alone (week 3), FBX 40 mg alone) was −32.4%, the “serum uric acid change … daily” value (Day 21, Drug 1 400 mg alone (week 3)) was −46.4% and the “serum uric acid change … daily” value (Day 22, Drug 1 200 mg alone (week 3), FBX 40 mg alone) was −32.8%. The “serum uric acid change … daily” value (Day 22, Drug 1 400 mg alone (week 3)) was −41.3%, the “Absolute sUA reduction from baseline, Intraday peak” value [1] was -3.1 mg/dL and the “Absolute sUA reduction from baseline, Trough” value [1] was -2.4 mg/dL. For the same compound, the “Percent sUA reduction from baseline, Intraday peak” value [1] was −50.4%, the “Percent sUA reduction from baseline, Trough” value (shortened to “Percent sUA reduction … Trough”) [1] was −39.7% and the “Absolute sUA reduction from baseline, Intraday peak” value (Week 1, Drug 1 400 mg alone) was -4.2 mg/dL. The “Absolute sUA reduction from baseline, Trough” value (Week 1, Drug 1 400 mg alone) was -3.4 mg/dL, the “Percent sUA reduction from baseline, Intraday peak” value (Week 1, Drug 1 400 mg alone) was −60.7% and the “Percent sUA reduction … Trough” value (Week 1, Drug 1 400 mg alone) was −48.5%. The “Absolute sUA reduction from baseline, Intraday peak” value [2] was -2.8 mg/dL, the “Absolute sUA reduction from baseline, Trough” value [2] was -2.0 mg/dL and the “Percent sUA reduction from baseline, Intraday peak” value [2] was −48.5%. For the same compound, the “Percent sUA reduction … Trough” value [2] was −34.7%, the “Absolute sUA reduction from baseline, Intraday peak” value (Week 3, Drug 1 400 mg alone) was -3.6 mg/dL and the “Absolute sUA reduction from baseline, Trough” value (Week 3, Drug 1 400 mg alone) was -2.9 mg/dL. For the same compound, the “Percent sUA reduction from baseline, Intraday peak” value (Week 3, Drug 1 400 mg alone) was −56.9% and the “Percent sUA reduction … Trough” value (Week 3, Drug 1 400 mg alone) was −45.5%.
